# In patent publication US6426229B1, “Chelating agent and detergent comprising the same” (Mitsubishi Rayon Co., Ltd., priority 1995, dated 2002):
# Experiment: Compression strength (hardening property) of powder stored under load for 2 months
# Type: physicochemical
# Details: Load 100 (table head [Kg]; text 100 g/cm^2); 20-30° C., relative humidity 40-70%
# Experimental: Method for the Measurement of Compression Strength
# (1) A test sample (500 g) is put in a poly-ethylene bag of 20 cm×20 cm in a room at a temperature of 20-30° C. and a relative humidity of 40-70%. The powder is levelled to an area of 20 cm×20 cm and air is forced out of the bag, and, then, the bag is sealed. This bag is further put in a kraft bag and this kraft bag is sealed.
# (2) The kraft bag of (1) is placed horizontally on a flat plate and a plate is put thereon. […]
# (3) With keeping the temperature of 20-30° C. and the relative humidity of 40-70%, the test sample is taken out after lapse of 2 months from the starting of application of load. Several test pieces (4 cm long×4 cm broad×2 cm high) are cut out from the sample.
row,SMILES,Compression strength after stored for 2 months
1,"C[C@@H](C(=O)[O-])N(CC(=O)[O-])CC(=O)[O-].[Na+].[Na+].[Na+] [Example 8, trisodium salt of (S)-α-alanine-N,N-diacetic acid]",1.0 Kg/cm^2
2,"O=C([O-])CC(NCCCNC(CC(=O)[O-])C(=O)[O-])C(=O)[O-].[Na+].[Na+].[Na+].[Na+] (stereo not drawn) [Example 53, tetrasodium 1,3-propanediaminedisuccinate]",0.8 Kg/cm^2
3,"O=C([O-])C[C@H](NCCCN[C@@H](CC(=O)[O-])C(=O)[O-])C(=O)[O-].[Na+].[Na+].[Na+].[Na+] [Example 54, tetrasodium (S,S)-1,3-propanediaminedisuccinate]",0.9 Kg/cm^2
4,"O=C([O-])C[C@H](NCCN[C@@H](CC(=O)[O-])C(=O)[O-])C(=O)[O-].[Cu+2].[Na+].[Na+] [compound 27, copper disodium (S,S)-ethylenediaminedisuccinate, reference compound]",2.8 Kg/cm^2
5,"O=C([O-])CN(CCS(=O)(=O)[O-])CC(=O)[O-].[Na+].[Na+].[Na+] [compound 9, trisodium salt of taurine-N,N-diacetic acid, reference compound]",2.5 Kg/cm^2
6,"O=C([O-])CC(NCCNC(CC(=O)[O-])C(=O)[O-])C(=O)[O-].[Na+].[Na+].[Na+].[Na+] (stereo not drawn) [Example 51, tetrasodium ethylenediaminedisuccinate]",1.2 Kg/cm^2
7,"O=C([O-])CN(CC(=O)[O-])c1ccccc1C(=O)[O-].[Fe+3] [Example 44, iron salt of anthranilic acid-N,N-diacetic acid]",1.0 Kg/cm^2
8,"O=C([O-])C[C@H](NCC(O)CN[C@@H](CC(=O)[O-])C(=O)[O-])C(=O)[O-].[Na+].[Na+].[Na+].[Na+] [Example 55, tetrasodium (S,S)-2-hydroxy-1,3-propanediaminedisuccinate]",1.2 Kg/cm^2
9,"O=C([O-])CC(NCCNC(CC(=O)[O-])C(=O)[O-])C(=O)[O-].[Na+].[Na+].[Na+].[Na+] (stereo not drawn) [compound 16, tetrasodium ethylenediaminedisuccinate, reference compound]",2.8 Kg/cm^2
10,"O=C(O)C[C@H](NCCN[C@@H](CC(=O)O)C(=O)O)C(=O)O [compound 21, ethylenediaminedisuccinic acid, reference compound]",2.8 Kg/cm^2
11,"CN(CC(=O)[O-])CC(=O)[O-].[Na+].[Na+] [compound 10, disodium N-methyliminodiacetate, reference compound]",2.6 Kg/cm^2

# Same assay, conditions: Load 200 (table head [Kg]; text 200 g/cm^2); 20-30° C., relative humidity 40-70%
row,SMILES,Compression strength after stored for 2 months
1,"O=C([O-])C[C@H](NCCCN[C@@H](CC(=O)[O-])C(=O)[O-])C(=O)[O-].[Fe+3].[NH4+] [Example 82, iron ammonium (S,S)-1,3-propanediaminedisuccinate]",1.1 Kg/cm^2
2,"O=C([O-])CN(CC(=O)[O-])c1ccccc1C(=O)[O-].[Fe+3] [Example 43, iron salt of anthranilic acid-N,N-diacetic acid]",0.9 Kg/cm^2
3,"O=C([O-])C[C@H](NCCN[C@@H](CC(=O)[O-])C(=O)[O-])C(=O)[O-].[Cu+2].[Na+].[Na+] [Example 80, copper disodium (S,S)-ethylenediaminedisuccinate]",1.0 Kg/cm^2
4,"O=C(O)CCN[C@@H](CC(=O)O)C(=O)O [Example 14, (S)-aspartic acid-N-monopropionic acid]",0.6 Kg/cm^2
5,"O=C([O-])CN(CCS(=O)(=O)[O-])CC(=O)[O-].[Na+].[Na+].[Na+] [Example 25, trisodium salt of taurine-N,N-diacetic acid]",1.1 Kg/cm^2
6,"C[C@@H](C(=O)O)N(CC(=O)O)CC(=O)O [Example 16, (S)-α-alanine-N,N-diacetic acid]",0.8 Kg/cm^2
7,"O=C([O-])CC(NCCNC(CC(=O)[O-])C(=O)[O-])C(=O)[O-].[Fe+3].[NH4+] (stereo not drawn) [Example 76, iron ammonium ethylenediaminedisuccinate]",1.1 Kg/cm^2
8,"O=C([O-])CC(NCCCNC(CC(=O)[O-])C(=O)[O-])C(=O)[O-].[Na+].[Na+].[Ni+2] [Example 84, nickel disodium (S,S)-1,3-propanediaminedisuccinate]",1.0 Kg/cm^2
9,"O=C(O)C[C@@H](C(=O)O)N(CC(=O)O)CC(=O)O [Example 15, (S)-aspartic acid-N,N-diacetic acid]",0.9 Kg/cm^2
10,"O=C([O-])C[C@@H](C(=O)[O-])N(CC(=O)[O-])CC(=O)[O-].[Na+].[Na+].[Na+].[Na+] [Example 3, tetrasodium salt of (S)-aspartic acid-N,N-diacetic acid]",0.9 Kg/cm^2
11,"O=C(O)C[C@H](NCCCN[C@@H](CC(=O)O)C(=O)O)C(=O)O [Example 64, (S,S)-1,3-propanediaminedisuccinic acid]",0.9 Kg/cm^2

# Same assay, conditions: Load 300 (table head [Kg]; text 300 g/cm^2); 20-30° C., relative humidity 40-70%
row,SMILES,Compression strength after stored for 2 months
1,"O=C([O-])C[C@H](NCC(O)CN[C@@H](CC(=O)[O-])C(=O)[O-])C(=O)[O-].[Na+].[Na+].[Na+].[Na+] [Example 60, tetrasodium (S,S)-2-hydroxy-1,3-propanediaminedisuccinate]",1.2 Kg/cm^2
2,"CN(CC(=O)[O-])CC(=O)[O-].[Na+].[Na+] [Example 32, disodium N-methyliminodiacetate]",0.8 Kg/cm^2
3,"O=C([O-])CN[C@@H](CC(=O)[O-])C(=O)[O-].[Na+].[Na+].[Na+] [Example 9, trisodium salt of (S)-aspartic acid-N-monoacetic acid]",0.8 Kg/cm^2
4,"O=C(O)CCN[C@@H](CC(=O)O)C(=O)O [Example 22, (S)-aspartic acid-N-monopropionic acid]",0.9 Kg/cm^2
5,"O=C(O)C[C@H](NCCN[C@@H](CC(=O)O)C(=O)O)C(=O)O [Example 71, ethylenediaminedisuccinic acid]",1.2 Kg/cm^2
6,"O=C([O-])CC(NCCCNC(CC(=O)[O-])C(=O)[O-])C(=O)[O-].[Na+].[Na+].[Na+].[Na+] (stereo not drawn) [Example 58, tetrasodium 1,3-propanediaminedisuccinate]",1.0 Kg/cm^2
7,"O=C(O)CN(CCS(=O)(=O)O)CC(=O)O [Example 40, taurine-N,N-diacetic acid]",0.9 Kg/cm^2
8,"O=C(O)C[C@@H](C(=O)O)N(CC(=O)O)CC(=O)O [Example 23, (S)-aspartic acid-N,N-diacetic acid]",1.0 Kg/cm^2
9,"O=C([O-])C[C@H](NCCN[C@@H](CC(=O)[O-])C(=O)[O-])C(=O)[O-].[Na+].[Na+].[Na+].[Na+] [Example 57, tetrasodium (S,S)-ethylenediaminedisuccinate]",0.9 Kg/cm^2

# Same assay, conditions: after 2 months under the load of 200 [g/cm^2]
SMILES,compression strength of the test piece,state of the test piece after storage
"O=C([O-])CN[C@@H](CC(=O)[O-])C(=O)[O-].[Na+].[Na+].[Na+] [Example 1, trisodium salt of (S)-aspartic acid-N-monoacetic acid]",1.2 kg/cm^2,it could be disintegrated without any special grinding treatment
